The results in this text go back to patent US20240165108A1, “NOVEL USE” (GlaxoSmithKline Intellectual Property Development Limited, priority 2022, published 2024).

In series [1] the target is T1, GPR91 (Homo sapiens, UniProt Q9BXA5).
T1 sequence (Q9BXA5 1-334): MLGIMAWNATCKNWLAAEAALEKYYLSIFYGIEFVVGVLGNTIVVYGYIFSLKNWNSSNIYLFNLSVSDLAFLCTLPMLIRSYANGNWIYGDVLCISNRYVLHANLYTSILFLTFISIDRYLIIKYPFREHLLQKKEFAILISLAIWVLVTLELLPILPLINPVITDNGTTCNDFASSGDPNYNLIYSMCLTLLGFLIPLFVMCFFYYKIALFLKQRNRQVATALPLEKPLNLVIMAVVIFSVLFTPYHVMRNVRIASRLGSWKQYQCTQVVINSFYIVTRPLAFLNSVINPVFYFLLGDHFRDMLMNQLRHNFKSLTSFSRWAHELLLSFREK
The series is described as follows: Succinate-stimulated secretion of PGD2 and cytokines/chemokines in LUVA cells. Format: cell-based. Set-up: host or cells: LUVA. The following applies: for IC50: compound 1 hr prior to succinate stimulation. On the procedure: After the incubation, the cell suspension was centrifuged, and the supernatant was collected for downstream readouts of secreted factors including Prostaglandin D2 (PGD2) by ELISA (Cayman Chemical PGD2 EIA kit), and cytokines/chemokines TNFa, MIP1a and Eotaxin-3 by MSD (Mesoscale V-Plex Plus proinflammatory panel 1, Plus Chemokine Panel 1).
A GPR91 knockout in LUVA cells (received from Kerafast Inc) was generated using CRISPR technology with a single guide following protocols known in the art. The guide RNA sequence used was […] (SEQ ID NO: 4). The guide RNA cut location was chromosome 3: 151,880,674.

Series [2] concerns human hair follicles. The experiment in a line: Microscopic hair cycle staging in ex vivo hair follicle organ culture. Format: cell-based. The text has this:
Compounds, at the concentrations indicated, are present throughout the duration of the hair follicle culture at 0.1% DMSO.

In series [3] the target is T1, GPR91. The series is described as follows: GTPyS G-protein functional assay. Format: biochemical. On the set-up: host or cells: LUVA. The following applies: read-out: Test compound pIC50, GTPyS (converted). The text has this: (§1) GPR91 inhibition can be measured according to the art. For example, GPR91 inhibition may be measured by testing a compound in a G-protein functional assay such as Calcium flux, IP1 accumulation and GTPyS. GPR91 inhibition may be measured by testing a compound in phenotypic assays which measures a cytokine response that is relevant to the indication.

Series [4] concerns the target T1, GPR91. The series is described as follows: Calcium flux in HEK293. Format: cell-based. The settings on record: read-out: Test compound pIC50, Calcium flux in HEK293 (converted).
Excerpt: as §1
In general terms: A change in cytosolic calcium serves as a functional read-out for many receptors and channels.

The target in series [5] is T1, GPR91. The series is described as follows: IP1 accumulation. It is filed as cell-based. On the set-up: host or cells: LUVA. The following applies: read-out: Test compound pIC50, IP1 (converted).
Excerpt: as §1

In series [6] the test system is human iPSC derived M2 macrophages. The settings on record: succinate present during macrophage polarization.
Series [7] deals with hair matrix keratinocytes. The settings on record: hair follicles from healthy donors. As for the experimental part: Hair follicle organ cultures ex vivo: Full length hair follicles were micro dissected from scalp skin or FUEs as above.
Quantitative evaluation of hair matrix keratinocyte proliferation and apoptosis is performed in Ki-67/TUNEL stained sections of the hair follicle. The germinative hair matrix keratinocyte proliferation is calculated as the percentage of KI-67 positive nuclei. Intra-follicular apoptosis is analyzed using TUNEL staining (TdT-mediated dUTP-biotin nick end labelling) as described previously.

Series [8] concerns dermal papilla cells. On the procedure: iPSC were differentiated and polarized to an M2 like macrophage phenotype as previously described. […] Media was collected from the treated iPSC after 48 hours of incubation, which is referred to as conditioned media. The dermal papilla from both male and female donors were plated at 5K cells/well onto a collagen coated E-Plate and analysed using the XCELLIGENCE® platform according to the manufacturer's instructions. The cells are analysed in the machine for 24 hours to determine adherence to the plate and establishment of baseline measurements. After 24 hours, the media is aspirated, and macrophage conditioned media is added to the cells for up to 117 hours and the effects of the GPR91 dependent iPSC secretome on dermal papilla proliferation are analyzed.

In series [9] the test system is human hair follicles. The experiment in a line: RNA sequencing of ex vivo cultured hair follicles. Format: cell-based. The following applies: healthy hair follicles after succinate. As for the experimental part: RNA extraction, sequencing and analysis were performed as follows; RNA from n=2-3 hair follicles per group was extracted using […]® PicoPure® RNA Isolation Kit (ThermoFisher) including a Dnase digestions step using the Rnase-Free Dnase Set from Qiagen and stored at −80 degrees Celsius until analysed. RNA concentration, purity and integrity were assessed before sequencing. Sequencing was performed on a NovaSeq 6000 using 2×100 bp read length with an output of approximately 30 M clusters (6 Gb per sample). Demultiplexing of the sequencing reads was performed with Illumina bcl2fastq (2.20).
Briefly, DESeq2 first creates a pseudo-reference sample (row-wise geometric mean) and calculates the ratio of each sample to this reference. Then, the normalization factor for each sample (size factor) is calculated using the median value of all ratios for a given sample. Normalized count values are created by dividing each raw count value in a given sample by that sample's normalization factor. Finally, DESeq2 calculates p values and adjusted p values for genes of two groups by allowing the shrinkage of the log 2 fold changes when the information for a gene is low (low counts or high dispersion values). For manual calculation of fold change (FC) between two groups, the ratio of the normalized read counts was used. And FC is considered relevant or significant if it is greater of equal to 2 (upregulation) or smaller that or equal to 0.5 (downregulation).

The test system of series [10] is human hair follicles. The experiment in a line: Dermal papilla area and melanin clumping, Fontana-Masson stained ex vivo hair follicles. It is filed as cell-based. The following applies: healthy hair follicles. On the procedure: Microscopic hair cycle staging: Hair cycle staging is performed at the end of the culture and can be determined according to several established parameters as described previously. Hair follicles are microscopically evaluated for the hair cycle staging using Masson-Fontana histochemistry and Ki-67/TUNEL immunostaining as previously described. […] Melanin clumps are indicated on the images by the orange arrows, and are counted in the Masson-fontana stained section at the end of the culture in a defined region of interest starting at the Auber's line and including the precortical hair matrix as described previously.

Series [11] has as its target T1, GPR91. The following applies: TREM2 expressing M2 macrophages, succinate for 48 hr. As for the experimental part:
Oncostatin M levels were determined by ELISA (Abcam ab215543) according to the manufacturer's instructions.
Oncostatin M levels were determined by ELISA according to the manufacturer's instructions. […] Supernatants were collected and Oncostatin M levels were measured.

Series [12] concerns JAK-STAT signaling pathway. The series is described as follows: STAT3/STAT5 phosphorylation in dermal papilla cells treated with oncostatin M. It is filed as cell-based, human. On the procedure: (§2) The downstream effects of recombinant oncostatin M was assessed by evaluating signalling pathways (such as the JAK-STAT pathway previously associated with oncostatin M induced senescence in mouse [Wang 2019, PMID 30930146]) and markers associated with senescence to link specific mediators in the macrophage secretome (like oncostatin M) to disease relevant mechanisms. Dermal papilla cells in culture were treated with recombinant oncostatin M protein from BioLegend. Tofacitinib was received from MedChemExpress as a ready-made 10 mM solution and used at the indicated concentration.
Protein quantification: protein was extracted after lysis with RIPA buffer and quantified by BCA using methods known in the art. Protein was loaded onto a gel and run with NuPage MES SDS running buffer and transferred onto nitrocellulose membrane using the iBlot2 according to manufacturer's instructions and procedures known in the art. The following primary antibodies were used to assess expression of the relative proteins described: Human anti-Total STAT5 antibody, Isotype (Rabbit polyclonal IgG) from Abcam, Human anti-Phospho STAT5 antibody, Isotype (Rabbit polyclonal IgG) from Abcam, Anti-Human total STAT3 (D3Z2G) from Cell Signaling Technologies, Anti-Human pSTAT3 (Y705) (D3A7) from Cell Signaling Technologies and the control antibody, β-Actin (8H10D10) Mouse IgG2b mAb from Cell Signaling Technologies. […]

Series [13] deals with dermal papilla cells. The experiment in a line: Beta galactosidase activity (senescence) in dermal papilla. Format: cell-based, human. As for the experimental part:
as §2
Beta Galactosidase Activity: A B-Galactosidase Activity Assay Kit (Fluorescence, Plate-Based) from Cell Signalling Technology #23833 was used to assess cellular senescence. The instructions were followed according to the manufacturer's instructions.

Series [14] deals with dermal papilla cells. The experiment in a line: FGF18 and BMP6 gene expression in dermal papilla cells (RT-qPCR). Format: cell-based, human. The settings on record: oncostatin M 10 ng/ml and 100 ng/ml. As for the experimental part:
as §2
Gene expression: mRNA was extracted as previously described in example 1. […] The following Taqman probes were used to identify target specific mRNA transcripts: FGF18 (Assay ID: Hs00826077_m1), and BMP6 (Assay ID: Hs01099594_m1).
A general note: Real-time PCR tracks product formation cycle by cycle.

Setting [15] is: LUVA cells, succinate 3 hours, MSD.

Regarding `O=C(CCCc1ccc2cccnc2n1)NCc1cc(-c2ccc(F)c(C(F)(F)F)c2)no1` [Compound 2, N-[{3-(3-trifluoromethyl-4-fluorophenyl)isoxazol-5-yl}methyl]-4-([1,8]naphthyridin-2-yl)butyramide], the IC50 is 1000 nM on GPR91 [1] (LUVA cells, read-out: Test compound pIC50, MIP-1a (converted)); 63.1 nM at GPR91 [1] (LUVA cells, read-out: Test compound pIC50, PGD2 (converted)); 1260 nM at GPR91 [3]; 25.1 nM at GPR91 [4]; 7940 nM on GPR91 [5]. The “percentage of hair follicles in the anagen phase” value in the series with human hair follicles [2] (donors with healthy hair follicles) is given as “increases the percentage of hair follicles in the anagen phase”.
Take `O=C([O-])CCC(=O)[O-].[Na+].[Na+]` [Succinate, Sodium succinate]: the TREM2 expression result in [6] was “higher levels of expression of TREM2”. Further, the “hair matrix keratinocyte proliferation” value in [7] is “reduces hair matrix keratinocyte proliferation”. For the same compound, in series [7] (TUNEL), the apoptosis result is “increases apoptosis”. In addition, in the series on dermal papilla cells [8] (3 mM succinate, male and female donors), the “dermal papilla proliferation with conditioned media of succinate treated macrophages” value is on record as “inhibit dermal papilla proliferation”. In addition, the “dermal papilla proliferation, succinate by itself” value with dermal papilla cells [8] (direct treatment of dermal papilla cells) is listed as “does not induce any changes in the proliferation of dermal papilla cells”. Moreover, in the series on human hair follicles [9], the “genes related to immune activation (cytokine and chemokine response)” value is listed as “increase in genes related to immune activation”; the “genes that regulate hair follicle pathways and keratins” value was “significant downregulation in genes that regulate hair follicle pathways”. On GPR91 [1] (GPR91 knockout LUVA cell line, 3 hr and 72 hour), the “TNFa and MIP-1a response to succinate in GPR91 knockout” value is recorded as “lack of response”. Also, the “TNFa and MIP-1a response to succinate” value on GPR91 [1] (LUVA cells, 3 hr and 72 hour post succinate addition) is “robust TNFa and MIP-1a response”. For the same compound, at GPR91 [1] (setting [15]), the “Succinate control pEC50, MIP-1a” value is listed as 3.4 and the “Succinate control pEC50, TNF-α” value stood at 4.2. In addition, on GPR91 [1] (LUVA cells, succinate 3 hours, PGD2 ELISA), the “Succinate control pEC50, PGD2” value was 3.5. Further, the “percentage of hair follicles in the catagen phase” value in the series with human hair follicles [2] (GPR91 activation by succinate) was “increases the percentage of hair follicles in the catagen phase”. Also, in the series on human hair follicles [2] (at high concentrations), the “toxicity to hair follicles” value was “highly toxic to hair follicles”. The dermal papilla area result in the series with human hair follicles [10] is “decreased size of the dermal papilla area”. For the same compound, the “oncostatin M secretion” value at GPR91 [11] is “secrete higher levels of oncostatin M”.
For the compound `C[C@@H]1CCN(C(=O)CC#N)C[C@@H]1N(C)c1ncnc2[nH]ccc12` [Tofacitinib, reference compound], the “oncostatin M induced phosphorylation of STAT3 and STAT5” value in series [12] (JAK inhibitor co-treatment) is recorded as “can be blocked”.
As to “oncostatin M: recombinant oncostatin M protein from BioLegend; cytokine shown to induce hair follicle quiescence in mice”, the “JAK-STAT signaling, phosphorylation of STAT3 and STAT5” value in [12] (recombinant oncostatin M applied to dermal papilla) is “activates the JAK-STAT signaling pathway”. The “senescence, β-galactosidase activity” value with dermal papilla cells [13] was “induces senescence”. Further, in the series with dermal papilla cells [14], the “expression of BMP6” value is recorded as “downregulates expression of BMP6” and the “expression of FGF18” value is listed as “increases the expression of FGF18”.
